The values that follow come from PMC9021956, “Screening and Identification of HBV Epitopes Restricted by Multiple Prevalent HLA-A Allotypes” (Frontiers in Immunology, 2022).

Like-named read-outs stand apart in the source and are kept apart here. Residues, ends and D or L forms follow the SMILES beside them.

As usually defined, the inhibition is the relative decrease from the control value, in per cent.

One test addresses T1, HLA-A0201 (Homo sapiens, UniProt P04439, D140Y/D185E/D98H/E176V/E277Q/G131W/G231S/I119V/I121R/I166T/I218V/L300P/L318F/N151K/N90K/P208A/P217A/Q86G/Q94H/R138H/R169H/T345S).
T1 construct: expressed in transfected cells; host or cells: HMy2.CIR
The test is described as follows: cell-based. To be noted: for inhibition at 5 µM: read-out: 5μM Inhibition (%); for inhibition at 15 µM: read-out: 15μM Inhibition (%). It is filed as binding. A digest of the protocol:
(§1)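 HMy2.CIR cells stably transfected with each HLA-A allele were acid-stripped (citric acid/Na2HPO4, pH 3.3, 1 min), neutralized in IMDM with 0.5% BSA, then given β2-m (1 μg/mL) and unlabeled competitor plus the FITC reference peptide. FITC+ cells were measured by flow cytometry, and IC50 was taken from percent competition.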

The target of a further test is T2, HLA-A1101 (Homo sapiens, UniProt P04439, A114D/D185E/E176A/F33Y/L180Q/S129P/T187R).
T2 construct: expressed in transfected cells; host or cells: HMy2.CIR
The test is described as follows: cell-based. The class given is binding. To be noted: for inhibition at 5 µM: read-out: 5μM Inhibition (%); for inhibition at 15 µM: read-out: 15μM Inhibition (%). A digest of the protocol: as §1

The target of another test is HLA-A3101 (Homo sapiens, UniProt P04439, A270S/D185E/E176V/E277Q/F33T/G231S/G80R/H175R/I121M/I218V/I322F/K168Q/L300P/L318F/M331R/P217A/Q94H/R138Q/T323A/T345S/T97I/V358M). The experiment in a line: Peptide competitive binding assay, transfected HMy2.CIR cells, reference ATFQFK(FITC)VER. The conditions noted are these: for inhibition at 5 µM / inhibition at 15 µM: HLA-A3101 HMy2.CIR cells; for inhibition at 5 µM: competitor peptide 5μM; for inhibition at 15 µM: competitor peptide 15μM; for IC50: read-out: Affinity. A digest of the protocol: as §1

Another test concerns the target HLA-A2402 (Homo sapiens, UniProt P04439, D101N/D140Y/D185E/E176V/E190D/F33S/G103R/G107R/I119L/I121M/I306V/K335N/L105A/L180Q/L300P/N151K/N90K/Q86E/Q94H/R106L/R138H/R89G/T104I/T345S/V100E/W191G/Y123F). The experiment in a line: cell-based. It is filed as binding. The procedure, abridged:
as §1

The mark [1] stands for this setting: HLA-A1101 HMy2.CIR cells, competitor peptide 5μM, 24 hours, flow cytometry.
Setting [2] is: HLA-A1101 HMy2.CIR cells, competitor peptide 15μM, 24 hours, flow cytometry.

For `CC[C@H](C)[C@H](NC(=O)[C@H](CO)NC(=O)[C@H](CO)NC(=O)[C@@H](NC(=O)[C@@H]1CCCN1C(=O)[C@@H](N)CO)[C@@H](C)CC)C(=O)N[C@@H](Cc1ccccc1)C(=O)N[C@@H](CO)C(=O)N[C@@H](CCCNC(=N)N)C(=O)O` [Epitope P38] (H-SPISSIFSR-OH; N-terminus and C-terminus assumed), the inhibition at 5 µM on HLA-A0201 (24 h) turned out to be 0%; at HLA-A1101 (24 h), 13.2%; at HLA-A3101 (24 hours, flow cytometry) it was 4.04%. The inhibition at 15 µM was found to be 0% at HLA-A0201 (24 h); 14.6% on HLA-A1101 (24 h); 4.49% on HLA-A3101 (24 hours, flow cytometry).

Take `CC(C)C[C@H](NC(=O)[C@H](CO)NC(=O)[C@H](Cc1ccccc1)NC(=O)[C@H](Cc1ccccc1)NC(=O)CNC(=O)[C@H](C)NC(=O)[C@@H](N)CCC(N)=O)C(=O)N[C@H](C(=O)N[C@@H](CCCCN)C(=O)O)[C@@H](C)O` [Epitope P40] (H-QAGFFSLTK-OH; N-terminus and C-terminus assumed): the IC50 at HLA-A1101 is < 5 µM; on HLA-A3101, > 15 µM. Further, the inhibition at 5 µM turned out to be 87.7% on HLA-A1101 (setting [1]) and 4.93% at HLA-A3101 (24 hours, flow cytometry). Moreover, the inhibition at 15 µM came out at 92.8% at HLA-A1101 (setting [2]) and 5.48% on HLA-A3101 (24 hours, flow cytometry).

With `CC(C)C[C@H](NC(=O)[C@@H](NC(=O)[C@H](Cc1ccccc1)NC(=O)[C@@H](NC(=O)[C@@H](N)CCCCN)C(C)C)C(C)C)C(=O)NCC(=O)NCC(=O)N[C@@H](CS)C(=O)N[C@@H](CCCNC(=N)N)C(=O)O` [Epitope P63], at HLA-A2402, the IC50 is > 15 µM. The inhibition at 5 µM on HLA-A2402 (HLA-A2402 HMy2.CIR cells, competitor peptide 5μM, 24 hours, flow cytometry) amounted to 9.68%; at HLA-A3101 (24 hours, flow cytometry) it was 35.4%. For the same compound, the inhibition at 15 µM worked out at 4.38% on HLA-A2402 (HLA-A2402 HMy2.CIR cells, competitor peptide 15μM, 24 hours, flow cytometry) and 55.4% at HLA-A3101 (24 hours, flow cytometry). In addition, the Affinity result on HLA-A3101 (transfected HMy2.CIR cells expressing HLA-A3101, unlabeled peptide competes with FITC-labeled reference peptide, 24 hours, flow cytometry, class by IC50) is given as “inter”.

With `CC(C)C[C@H](NC(=O)[C@H](CCCCN)NC(=O)[C@H](Cc1c[nH]cn1)NC(=O)[C@H](CCCNC(=N)N)NC(=O)[C@H](CS)NC(=O)CNC(=O)CNC(=O)[C@H](CC(C)C)NC(=O)[C@@H](N)C(C)C)C(=O)O` [Epitope P36] (H-VLGGCRHKL-OH; N-terminus and C-terminus assumed), the IC50 at HLA-A0201, at HLA-A1101 and at HLA-A3101 was > 15 µM throughout. The inhibition at 5 µM at HLA-A0201 (HLA-A0201 HMy2.CIR cells, competitor peptide 5μM, 24 hours, flow cytometry) was 22.3%; at HLA-A1101 (setting [1]), 14%; on HLA-A3101 (24 hours, flow cytometry), 4.82%. In addition, the inhibition at 15 µM at HLA-A0201 (HLA-A0201 HMy2.CIR cells, competitor peptide 15μM, 24 hours, flow cytometry) was determined as 37.3%; on HLA-A1101 (setting [2]), 20.6%; at HLA-A3101 (24 hours, flow cytometry) it was 5.7%.
